Reference: patent US7582760B2, “Benzimidazolone and dihydroindolone derivatives and uses thereof” (Roche Palo Alto LLC, priority 2005, dated 2009)
pKi: −log10 of the molar value. Counter-ions that a name gives are not always drawn.

Key:
[1] = biological target: T1, recombinant human 5-HT6 receptor (Homo sapiens, UniProt P50406); experiment: Radioligand binding, competition for [3H]LSD in HEK293 cell membranes; conditions: receptor not printed for this value in the sentence; radioligand binding of Example 13
T1 construct: expressed in transfected cells; membranes
Experimental: (§1) The binding activity of compounds of this invention in vitro was determined as follows. Duplicate determinations of 5-HT6 ligand affinity were made by competing for binding of [^3H]LSD in cell membranes derived from HEK293 cells stably expressing recombinant human 5-HT6 receptor. Duplicate determinations of 5-HT2A ligand affinity were made by competing for binding of [^3H]Ketanserin (3-(2-(4-(4-fluorobenzoyl)piperidinol)ethyl)-2,4(1H,3H)-quinazolinedione) in cell membranes derived from CHO-K^1 cells stably expressing recombinant human 5-HT2A receptor. Membranes were prepared from HEK 293 cell lines by the method described by Monsma et al., Molecular Pharmacology, Vol. 43 pp. 320-327 (1993), and from CHO-K1 cell lines as described by Bonhaus et al., Br J. Pharmacol. June; 115(4):622-8 (1995).
(§2) For estimation of affinity at the 5-HT6 receptor, all determinations were made in assay buffer containing 50 mM Tris-HCl, 10 mM MgSO4, 0.5 mM EDTA, 1 mM ascorbic acid, pH 7.4 at 37° C., in a 250 microliter reaction volume. […]
(§3) Assay tubes containing [^3H] […] LSD or [^3H]Ketanserin were determined as radioactive counts per minute using Packard TopCount.
(§4) Displacement of [^3H]LSD or [^3H]Ketanserin from the binding sites was quantified by fitting concentration-binding data to a 4-parameter logistic equation: […]

[2] = biological target: T2, recombinant human 5-HT2A receptor (Homo sapiens, UniProt P28223); experiment: Radioligand binding, competition for [3H]Ketanserin in CHO-K1 cell membranes; conditions: [3H]Ketanserin displacement, read-out: pKi for the 5-HT2A receptor (converted)
T2 construct: expressed in transfected cells; membranes
Experimental: as §1, §2, §3, §4

T2 sequence (P28223 whole entry): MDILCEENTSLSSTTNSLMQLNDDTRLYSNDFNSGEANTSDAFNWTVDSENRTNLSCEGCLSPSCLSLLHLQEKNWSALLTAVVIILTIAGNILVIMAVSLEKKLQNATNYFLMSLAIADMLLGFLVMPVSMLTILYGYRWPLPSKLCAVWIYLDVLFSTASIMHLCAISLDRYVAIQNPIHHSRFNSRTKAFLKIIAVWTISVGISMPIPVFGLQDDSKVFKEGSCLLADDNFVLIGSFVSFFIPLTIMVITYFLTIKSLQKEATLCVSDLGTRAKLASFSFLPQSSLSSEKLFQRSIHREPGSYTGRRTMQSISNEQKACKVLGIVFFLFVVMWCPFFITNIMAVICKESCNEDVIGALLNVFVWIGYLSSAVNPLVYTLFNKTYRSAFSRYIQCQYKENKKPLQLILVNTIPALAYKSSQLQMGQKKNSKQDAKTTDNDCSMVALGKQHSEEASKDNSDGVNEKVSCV
T1 sequence (P50406 whole entry): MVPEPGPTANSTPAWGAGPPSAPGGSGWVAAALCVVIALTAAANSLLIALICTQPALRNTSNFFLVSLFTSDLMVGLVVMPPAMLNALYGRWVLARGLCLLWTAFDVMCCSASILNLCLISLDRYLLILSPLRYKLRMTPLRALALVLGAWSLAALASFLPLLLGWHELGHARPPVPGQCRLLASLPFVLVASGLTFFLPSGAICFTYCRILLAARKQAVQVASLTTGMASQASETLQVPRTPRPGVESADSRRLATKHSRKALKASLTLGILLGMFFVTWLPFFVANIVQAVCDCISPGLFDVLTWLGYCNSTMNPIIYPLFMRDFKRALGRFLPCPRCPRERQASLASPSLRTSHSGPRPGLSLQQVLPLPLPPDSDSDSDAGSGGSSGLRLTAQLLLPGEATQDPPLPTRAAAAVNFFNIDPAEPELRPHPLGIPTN

melting point [°C]	Compound	also measured
203.8 to 205.1	CNCCOc1cccc2c1n(C)c(=O)n2Cc1ccccc1 (as salt: hydrochloride)	–
181 to 184	O=c1[nH]c2c(OC3CNC3)cccc2n1Cc1ccccc1	–
210 to 216.6	O=c1[nH]c2c(OCC3CNC3)cccc2n1Cc1ccccc1 (as salt: hydrochloride)	–

The next lines start with the molecule.

Compound	melting point [°C]	also measured
O=c1[nH]c2c(N3CCNCC3)ccc(Cl)c2n1Cc1cccc(F)c1 [7-Chloro-1-(3-fluoro-benzyl)-4-piperazin-1-yl-1,3-dihydro-benzoimidazol-2-one]	–	pKi [1]: ~9.48
O=C1Cc2c(N3CCNCC3)cccc2N1Cc1ccc(F)c(F)c1 [1-(3,4-Difluoro-benzyl)-4-piperazin-1-yl-1,3-dihydro-indol-2-one]	–	Ki [2]: ~0.331 nM
